Reference: patent publication US20260097090A1, “HERBAL MEDICINE EXTRACTS RM01 AND USES AND METHODS OF PREPARATION THEREOF” (RenuMemo Therapeutics LLC, priority 2022, published 2026)

System: patient with severe Alzheimer's disease
Experiment: Human efficacy case study, Mini Mental State Examination (MMSE) and family report
Assay type: in vivo
Details: same patient, long time taking Memantine and Donepezil before RM01; drugs stopped before the visit
Experimental: The patient has been taking Memantine and Donepezil to treat their disease. However, both drugs were stopped before the visit.
The patient was evaluated by Mini Mental State Examination (MMSE) during the first visit.
The patient was given the herbal extract composition RM01 twice a day every day, for five weeks. Family member assisted all the process.
The patient was re-evaluated of MMSE after 1 week of treatment. In the meantime, the family member was questioned on patient daily life, regarding sleep, mood, reaction to people, behavioral and psychological symptoms.
The treatment and re-evaluation lasted 5 weeks.

Row | Structure (SMILES) | patient symptom improvement on prior medication, informed by the patient's spouse
1 | COc1cc2c(cc1OC)C(=O)C(CC1CCN(Cc3ccccc3)CC1)C2 (centres unmarked) [Donepezil] | not much effect
2 | CC12CC3CC(C)(C1)CC(N)(C3)C2 [Memantine] | not much effect
